Laboratory results published in US10913710B2, “Benzene disulfonamide for the treatment of cancer” (priority 2017, dated 2021).
pKd: −log10 of the molar value.

Target: PDEδ (Homo sapiens (Human), UniProt O43924)
Test: Fluorescence polarization competition binding assay: displacement titration of labeled Atorvastatin probe for KD
Settings: fluorescence polarization assay; activity classes; read-out: KD
Procedure: Example D.2: Displacement Titrations of Labeled Atorvastatin-Probe for the Determination of KD Values
Displacement Titrations of Labeled Atorvastatin-Probe for the Determination of KD Values:
The purification was followed by size exclusion gel filtration on a Superdex 75 S26/60 column using buffer A (25 mM Tris-HCl, pH 7.5, 150 mM NaCl and 3 mM DTE).

Row | pKd | SMILES
1 | 7.52 to 9.00 | O=S(=O)(c1ccc(S(=O)(=O)N(Cc2ccc(Cl)cc2)C2CCCC2)cc1)N(Cc1ccccc1)CC1CCNCC1 [Compound 44, N1-Benzyl-N4-(4-chlorobenzyl)-N4-cyclopentyl-N1-(piperidin-4-ylmethyl)benzene-1,4-disulfonamide]
2 | 7.52 to 9.00 | CCOc1ccccc1CN(Cc1ccco1)S(=O)(=O)c1ccc(S(=O)(=O)N(CC)C2CCCCC2)cc1 [Compound 89, N1-cyclohexyl-N4-(2-ethoxybenzyl)-N1-ethyl-N4-(furan-2-ylmethyl)benzene-1,4-disulfonamide]
3 | 6.00 to 7.00 | O=S(=O)(NCc1ccccc1)c1ccc(S(=O)(=O)N(Cc2ccc(Cl)cc2)Cc2ccco2)cc1 [Compound 90, N1-benzyl-N4-(4-chlorobenzyl)-N4-(furan-2-ylmethyl)benzene-1,4-disulfonamide]
4 | 7.00 to 7.52 | CN(Cc1ccccc1)S(=O)(=O)c1ccc(S(=O)(=O)N(Cc2ccc(F)cc2)C2CCCC2)cc1 [Compound 91, N1-benzyl-N4-cyclopentyl-N4-(4-fluorobenzyl)-N1-methylbenzene-1,4-disulfonamide]
5 | 7.52 to 9.00 | O=S(=O)(NC1CCCC1)c1ccc(S(=O)(=O)N(Cc2ccccc2)Cc2ccccn2)cc1 [Compound 92, N1-benzyl-N4-cyclopentyl-N1-(pyridin-2-ylmethyl)benzene-1,4-disulfonamide]
6 | 6.00 to 7.00 | O=S(=O)(NC1CCCC1)c1ccc(S(=O)(=O)N(Cc2ccc(F)cc2)Cc2ccc(F)cc2)cc1 [Compound 93, N1-cyclopentyl-N4,N4-bis(4-fluorobenzyl)benzene-1,4-disulfonamide]
7 | < 6.00 | CN(Cc1ccccc1)S(=O)(=O)c1ccc(S(=O)(=O)N(Cc2ccccc2)Cc2ccccc2F)cc1 [Compound 96, N1,N4-dibenzyl-N1-(2-fluorobenzyl)-N4-methylbenzene-1,4-disulfonamide]
8 | 6.00 to 7.00 | O=S(=O)(NCC1CCCO1)c1ccc(S(=O)(=O)N(Cc2ccc(Cl)cc2)Cc2ccco2)cc1 (centres unmarked) [Compound 99, N1-(4-chlorobenzyl)-N1-(furan-2-ylmethyl)-N4-((tetrahydrofuran-2-yl)methyl)benzene-1,4-disulfonamide]
9 | 7.00 to 7.52 | O=S(=O)(NCc1ccccc1)c1ccc(S(=O)(=O)N(Cc2ccc(Cl)cc2)C2CCCC2)cc1 [Compound 100, N1-benzyl-N4-(4-chlorobenzyl)-N4-cyclopentylbenzene-1,4-disulfonamide]

Continued, molecule first:

Row | SMILES | pKd
10 | CNc1cc(CN(CC2CCNCC2)S(=O)(=O)c2ccc(S(=O)(=O)N(Cc3ccc(Cl)cc3)C3CCCC3)cc2)ccc1C(=O)O [Compound 21, 4-(((4-(N-(4-chlorobenzyl)-N-cyclopentylsulfamoyl)-N-(piperidin-4-ylmethyl)phenyl)sulfonamido)methyl)-2-(methylamino)benzoic Acid] | 7.52 to 9.00
11 | COc1ccc(CN(Cc2ccc3c(c2)OCO3)S(=O)(=O)c2ccc(S(=O)(=O)N3CCCC(C)C3)cc2)cc1OC (centres unmarked) [Compound 94, N-(benzo[d][1,3]dioxol-5-ylmethyl)-N-(3,4-dimethoxybenzyl)-4-((3-methylpiperidin-1-yl)sulfonyl)benzenesulfonamide] | < 6.00
12 | COc1ccc(CN(Cc2ccc(OC)c(OC)c2)S(=O)(=O)c2ccc(S(=O)(=O)N3CCCCC3)cc2)cc1 [Compound 95, N-(3,4-dimethoxybenzyl)-N-(4-methoxybenzyl)-4-(piperidin-1-ylsulfonyl)benzenesulfonamide] | < 6.00
13 | O=S(=O)(NC1CCCC1)c1ccc(S(=O)(=O)N(Cc2ccccc2)Cc2ccccc2Cl)cc1 [Compound 98, N1-benzyl-N1-(2-chlorobenzyl)-N4-cyclopentylbenzene-1,4-disulfonamide] | 7.52 to 9.00

Test system: Caco-2 cells
Test: in vitro
Settings: 10 μM, 2 hours, 37° C.
Procedure: (§1) Caco-2 Permeability Assay:
(§2) The compound concentration was measured in the receiver as well as the donor well.

Row | SMILES | Caco-2 pH 6.5/7.4 Papp A→B Arith. Mean | Caco-2 pH 6.5/7.4 Papp B→A Arith. Mean
14 | c1ccc(Cn2c(-c3ccc(OC[C@H](C4CCNCC4)n4c(-c5ccccc5)nc5ccccc54)cc3)nc3ccccc32)cc1 [Deltarasin, reference compound] | 1.0 10^−6 cm/s | 5.1 10^−6 cm/s
15 | Cc1ccc(-n2nc3c(=O)n(CCCC(=O)NCC(C)c4ccccc4)nc(C)c3c2C)cc1 (centres unmarked) [Deltazinone 1, reference compound] | 41.1 10^−6 cm/s | 25.1 10^−6 cm/s

Test system: not listed separately
Test: in vitro
Settings: human, Caco-2, pH 6.5
Procedure: as §1, §2

Row | Papp A→B at 2 h, 10 µM | Papp B→A at 2 h, 10 µM | efflux ratio at 2 h, 10 μM | SMILES
16 | 1.6 ×10⁻⁶ cm/s | 13.7 ×10⁻⁶ cm/s |  | CNc1nccc(CN(CC2CCNCC2)S(=O)(=O)c2ccc(S(=O)(=O)N(Cc3ccc(Cl)cc3)C3CCCC3)cc2)n1 [Compound 16, N1-(4-Chlorobenzyl)-N1-cyclopentyl-N4-((2-(methylamino)pyrimidin-4-yl)methyl)-N4-(piperidin-4-ylmethyl)benzene-1,4-disulfonamide]
17 | 0.4 ×10⁻⁶ cm/s | 0.5 ×10⁻⁶ cm/s | 1.1 | CNc1cc(CN(CC2CCNCC2)S(=O)(=O)c2ccc(S(=O)(=O)N(Cc3ccc(Cl)cc3)C3CCCC3)cc2)ccc1C(=O)O [Compound 21, 4-(((4-(N-(4-chlorobenzyl)-N-cyclopentylsulfamoyl)-N-(piperidin-4-ylmethyl)phenyl)sulfonamido)methyl)-2-(methylamino)benzoic Acid]
18 | 0.6 ×10⁻⁶ cm/s | 0.6 ×10⁻⁶ cm/s | 0.9 | O=S(=O)(c1ccc(S(=O)(=O)N(Cc2ccc(Cl)cc2)C2CCCC2)cc1)N(Cc1ccccc1)CC1CCNCC1 [Compound 44, N1-Benzyl-N4-(4-chlorobenzyl)-N4-cyclopentyl-N1-(piperidin-4-ylmethyl)benzene-1,4-disulfonamide]

Test system: human peripheral blood mononuclear cells (hPMPBC)
Test: Cytotoxicity assay with human peripheral blood mononuclear cells
Type: cell-based
Settings: not given
Procedure: Cells were incubated with test substances at titrated concentrations ranging between 30 μM and 1.7 nM for 72 h. After the incubation period, the cells were fixed with 10% (wt/vol) trichloroacetic acid and stained for 30 min with sulforhodamine B (SRB) staining solution prior to removing unbound dye by washing repeatedly with 1% (vol/vol) acetic acid. The protein-bound dye is dissolved in 10 mM Tris base solution for OD (optical density) determination at 510 nm using a microplate reader.

Row | SMILES | concentration up to which hPMBCs proliferation is not impaired
19 | CNc1nccc(CN(CC2CCNCC2)S(=O)(=O)c2ccc(S(=O)(=O)N(Cc3ccc(Cl)cc3)C3CCCC3)cc2)n1 [Compound 16, N1-(4-Chlorobenzyl)-N1-cyclopentyl-N4-((2-(methylamino)pyrimidin-4-yl)methyl)-N4-(piperidin-4-ylmethyl)benzene-1,4-disulfonamide] | ≥ 30 µM
